# Measurements taken from patent US10391095B2, “DNA-PK inhibitors” (Vertex Pharmaceuticals Incorporated, priority 2012, dated 2019).
# Target: DNA-PK (Homo sapiens, UniProt P78527)
# Assay: DNA-PK inhibition assay (radiometric, 33P-ATP)
# Format: biochemical
# Conditions: 100 μM ATP, competitive tight-binding fit
# Summary of the method: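 33P transfer from 100 µM ATP to a DNA-PK peptide (0.8 mg/mL) is measured after 45 min, using about 6 nM enzyme activated by 10 µg/mL sheared dsDNA (HEPES pH 7.5, MgCl2, DTT). Filter-bound counts fitted to a competitive tight-binding inhibition model give Ki.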
row,Ki [nM],SMILES
1,< 30,CNC(=O)c1c(-n2ccc(C)n2)cnc2c([C@H](C)CNc3cc(-c4ccc(C)nc4)ncn3)cccc12 [Compound 740]
2,< 30,CNC(=O)c1ccnc2c([C@H](C)CNc3cc(N4CCn5ccnc5C4)ncn3)cccc12 [Compound 741]
3,< 30,CC(=O)Nc1cnc2c([C@H](C)CNc3cc(-c4ccc(C)nc4)ncn3)cccc2c1 [Compound 742]
4,< 30,CNC(=O)c1ccnc2c([C@H](C)CNc3cc(-n4ccnc4)ncn3)cccc12 [Compound 743]
5,< 30,CNC(=O)c1ccnc2c([C@H](C)CNc3cc(-c4cnc(OC5CCCN(C(=O)OC(C)(C)C)C5)nc4)ncn3)cccc12 (stereo partly drawn) [Compound 747]
6,< 30,CNC(=O)c1ccnc2c([C@H](C)CNc3cc(-c4ccc(OC5COC5)cc4)ncn3)cccc12 [Compound 748]
7,< 30,CNC(=O)c1ccnc2c([C@H](C)CNc3cc(-c4ccc(NC(C)=O)cc4)ncn3)cccc12 [Compound 749]
8,< 30,CNC(=O)c1ccnc2c([C@H](C)CNc3cc(-c4ccc(NC(=O)OC)cc4)ncn3)cccc12 [Compound 750]
9,< 30,CNC(=O)c1ccnc2c([C@H](C)CNc3cc(-c4ccc(C(=O)NCCCN(C)C)cc4)ncn3)cccc12 [Compound 751]
10,< 30,CNC(=O)c1ccnc2c([C@H](C)CNc3cc(-c4ccc(C(=O)NC5CC5)cc4)ncn3)cccc12 [Compound 752]
11,< 30,CNC(=O)c1ccnc2c([C@H](C)CNc3cc(-c4ccc(C(=O)NCCO)cc4)ncn3)cccc12 [Compound 753]
12,< 30,CNC(=O)c1ccc(-c2cc(NC[C@@H](C)c3cccc4c(C(=O)NC)ccnc34)ncn2)cc1 [Compound 754]
13,< 30,CNC(=O)c1ccnc2c([C@H](C)CNc3cc(-c4ccc(OC(C)(C)C)cc4)ncn3)cccc12 [Compound 755]
14,< 30,CNC(=O)c1ccnc2c([C@H](C)CNc3cc(-c4ccc(N5CCN(CC(F)F)CC5)nc4)ncn3)cccc12 [Compound 756]
15,< 30,CNC(=O)c1ccnc2c([C@H](C)CNc3cc(-c4cnc(N5CCN(CC(F)F)CC5)nc4)ncn3)cccc12 [Compound 757]
16,< 30,CNC(=O)c1ccnc2c([C@H](C)CNc3cc(-c4ccc5c(c4)CNC5=O)ncn3)cccc12 [Compound 758]
17,< 30,CNC(=O)c1ccnc2c([C@H](C)CNc3cc(-c4ccc(C(N)=O)cc4)ncn3)cccc12 [Compound 759]
18,< 30,CNC(=O)c1c(OC)cnc2c([C@H](C)CNc3cc(-c4ccc(C)nc4)ncn3)cccc12 [Compound 762]
19,< 30,CNC(=O)c1c(-n2ccnc2)cnc2c([C@H](C)CNc3cc(-c4ccc(C)nc4)ncn3)cccc12 [Compound 763]
20,< 30,CNC(=O)c1c(NC)cnc2c([C@H](C)CNc3cc(-c4ccc(C)nc4)ncn3)cccc12 [Compound 764]
21,< 30,CNC(=O)c1c(N(C)C)cnc2c([C@H](C)CNc3cc(-c4ccc(C)nc4)ncn3)cccc12 [Compound 765]
22,< 30,CNC(=O)c1c(C#N)cnc2c([C@H](C)CNc3cc(-c4ccc(C)nc4)ncn3)cccc12 [Compound 766]
23,< 30,CNC(=O)c1c(N2CCOCC2)cnc2c([C@H](C)CNc3cc(-c4ccc(C)nc4)ncn3)cccc12 [Compound 767]
24,< 30,CNC(=O)c1ccnc2c([C@H](C)CNc3cc(-c4cnc(O)nc4)ncn3)cccc12 [Compound 768]

row,Ki [nM],SMILES
1,< 30,CNC(=O)c1ccnc2c([C@H](C)CNc3cc(-c4ccc(C(=O)N5CCN(C)CC5)cc4)ncn3)cccc12 [Compound 770]
2,< 30,CNC(=O)c1ccnc2c([C@H](C)CNc3cc(-c4ccnc(C)c4)ncn3)cccc12 [Compound 771]
3,< 30,CNC(=O)c1c(F)cnc2c([C@H](C)CNc3cc(-c4cncc(C)c4)ncn3)cccc12 [Compound 772]
4,< 30,CNC(=O)c1ccnc2c([C@H](C)CNc3cc(-c4ccc(C(=O)OC)s4)ncn3)cccc12 [Compound 774]
5,< 30,CNC(=O)c1ccnc2c([C@H](C)CNc3cc(-c4ccc(C(=O)O)s4)ncn3)cccc12 [Compound 775]
6,< 30,CNC(=O)c1ccc(-c2cc(NC[C@@H](C)c3cccc4c(C(=O)NC)ccnc34)ncn2)s1 [Compound 776]
7,< 30,CNC(=O)c1ccnc2c([C@H](C)CNc3cc(-c4ccc(C(=O)N(C)C)s4)ncn3)cccc12 [Compound 777]
8,< 30,CNC(=O)c1ccnc2c([C@H](C)CNc3cc(-c4cnc(C)s4)ncn3)cccc12 [Compound 778]
9,< 30,CNC(=O)c1ccnc2c([C@H](C)CNc3cc(-c4cnc(OC)s4)ncn3)cccc12 [Compound 779]
10,< 30,CNC(=O)c1ccnc2c([C@H](C)CNc3cc(-c4ccc(N5CCN(CC(F)(F)F)CC5)nc4)ncn3)cccc12 [Compound 780]
11,< 30,CNC(=O)c1c(F)cnc2c([C@H](C)CNc3cc(-c4csc(-n5cccn5)n4)ncn3)cccc12 [Compound 782]
12,< 30,CNC(=O)c1c(F)cnc2c([C@H](C)CNc3cc(-c4cnn(C)c4)ncn3)cccc12 [Compound 783]
13,< 30,CNC(=O)c1c(F)cnc2c([C@H](C)CNc3cc(-c4cn[nH]c4)ncn3)cccc12 [Compound 785]
14,< 30,CNC(=O)c1c(F)cnc2c([C@H](C)CNc3cc(-c4csc(OC)n4)ncn3)cccc12 [Compound 787]
15,< 30,CCc1ccc(-c2cc(NC[C@@H](C)c3cccc4c(C(=O)NC)ccnc34)ncn2)cn1 [Compound 789]
16,< 30,CNC(=O)c1ccnc2c([C@H](C)CNc3cc(-c4cnc(C5CC5)nc4)ncn3)cccc12 [Compound 790]
17,< 30,CNC(=O)c1ccnc2c([C@H](C)CNc3cc(-c4cnc(C(C)(C)C)nc4)ncn3)cccc12 [Compound 791]
18,< 30,CNC(=O)c1ccnc2c([C@H](C)CNc3cc(-c4cncc(C)c4)ncn3)cccc12 [Compound 792]
19,< 30,CNC(=O)c1ccnc2c([C@H](C)CNc3cc(-c4cnc5c(c4)CCCO5)ncn3)cccc12 [Compound 793]
20,< 30,CCOC(=O)c1cn2c(n1)CN(c1cc(NC[C@@H](C)c3cccc4c(C(=O)NC)ccnc34)ncn1)CC2 [Compound 794]
21,< 30,CCOC(=O)c1ccc(-c2cc(NC[C@@H](C)c3cccc4c(C(=O)NC)ccnc34)ncn2)o1 [Compound 795]
22,< 30,CNC(=O)c1ccnc2c([C@H](C)CNc3cc(N4CNC(=O)C4)ncn3)cccc12 [Compound 797]
23,< 30,CNC(=O)c1ccnc2c([C@H](C)CNc3cc(-c4ccc(O)nc4)ncn3)cccc12 [Compound 799]
24,< 30,CNC(=O)c1ccnc2c([C@H](C)CNc3cc(-c4cnc(SC)nc4)ncn3)cccc12 [Compound 800]

row,Ki [nM],SMILES
1,< 30,CNC(=O)c1ccnc2c([C@H](C)CNc3cc(-c4ccc5c(c4)CNCC5)ncn3)cccc12 [Compound 801]
2,< 30,CNC(=O)c1ccnc2c([C@H](C)CNc3cc(-c4ccc5c(c4)CCNC5)ncn3)cccc12 [Compound 802]
3,< 30,CNC(=O)c1ccnc2c([C@H](C)CNc3cc(-c4ccc5c(c4)CCN(C(C)=O)C5)ncn3)cccc12 [Compound 803]
4,< 30,CNC(=O)c1ccnc2c([C@H](C)CNc3cc(-c4ccc5c(c4)CN(C(C)=O)CC5)ncn3)cccc12 [Compound 804]
5,< 30,CNC(=O)c1ccnc2c([C@H](C)CNc3cc(-c4ccc(C)cc4F)ncn3)cccc12 [Compound 805]
6,< 30,CNC(=O)c1ccc(-c2cc(NC[C@@H](C)c3cccc4c(C(=O)NC)ccnc34)ncn2)cc1F [Compound 807]
7,< 30,CNC(=O)c1ccnc2c([C@H](C)CNc3cc(-c4ccc(C5(O)COC5)cc4)ncn3)cccc12 [Compound 809]
8,< 30,CNC(=O)c1ccnc2c([C@H](C)CNc3cc(-c4cnc(N(C)C)nc4)ncn3)cccc12 [Compound 810]
9,< 30,CNC(=O)c1ccnc2c([C@H](C)CNc3cc(-c4ccc(C(C)OC)cc4)ncn3)cccc12 (stereo partly drawn) [Compound 811]
10,< 30,CNC(=O)c1ccnc2c([C@H](C)CNc3cc(-c4ccnc(C(F)(F)F)c4)ncn3)cccc12 [Compound 812]
11,< 30,Cc1ncc(-c2cc(NC[C@@H](C)c3cccc4c(C(F)F)c(F)cnc34)ncn2)cn1 [Compound 813]
12,< 30,C[C@H](CNc1cc(-c2cnc3c(cnn3CCO)c2)ncn1)c1cccc2c(C(F)F)c(F)cnc12 [Compound 814]
13,< 30,CNC(=O)c1ccnc2c([C@H](C)CNc3cc(-c4cnc5c(c4)CN(C(C)=O)CC5)ncn3)cccc12 [Compound 815]
14,< 30,CNC(=O)c1ccnc2c([C@H](C)CNc3cc(-c4ccc(CC(C)C)nc4)ncn3)cccc12 [Compound 816]
15,< 30,CNC(=O)c1ccnc2c([C@H](C)CNc3cc(-c4cnc5c(c4)OCCN5)ncn3)cccc12 [Compound 817]
16,< 30,CNC(=O)c1ccnc2c([C@H](C)CNc3cc(-c4ccnc(N5CCOCC5)c4)ncn3)cccc12 [Compound 818]
17,< 30,CNC(=O)c1ccnc2c([C@H](C)CNc3cc(-c4ccnc(N5CCC(O)CC5)c4)ncn3)cccc12 [Compound 819]
18,< 30,CNC(=O)c1ccnc2c([C@H](C)CNc3cc(-c4cnc(CO)c(OC)c4)ncn3)cccc12 [Compound 821]
19,< 30,CNC(=O)c1ccnc2c([C@H](C)CNc3cc(-c4cnc(C(C)(C)O)c(F)c4)ncn3)cccc12 [Compound 822]
20,< 30,CNC(=O)c1ccnc2c([C@H](C)CNc3cc(-c4ccc(OC)c(F)c4)ncn3)cccc12 [Compound 823]
21,< 30,CNC(=O)c1ccnc2c([C@H](C)CNc3cc(-c4cc(F)c(OC)c(F)c4)ncn3)cccc12 [Compound 824]
22,< 30,CNC(=O)c1ccnc2c([C@H](C)CNc3cc(-c4ccc5c(c4)CC(=O)N5C)ncn3)cccc12 [Compound 825]
23,< 30,CNC(=O)c1ccnc2c([C@H](C)CNc3cc(N4CCn5c(C6CCN(C)CC6)cnc5C4)ncn3)cccc12 [Compound 826]
24,< 30,CNC(=O)c1ccnc2c([C@H](C)CNc3cc(-c4cnc(C)s4)ncn3)ccc(F)c12 [Compound 827]
